Reference: patent US7919077B2, “Pharmaceutical compositions comprising CCL2 and use of same for the treatment of inflammation” (Yeda Research and Development Co. Ltd., priority 2006, dated 2011)

How the values were obtained:
[1] = system: naïve T cells; test: Cytoskeleton rearrangement (actin polymerization), naïve T cells; assay type: cell-based, mice; details: naïve T cells pre-treated with CCL2 0.1 ng/ml, 15 seconds stimulation
Method: (§1) Cytoskeleton rearrangement—T cells were pre-incubated for 30 minutes in the presence or absence of CCL2 (0.1 ng/ml), and then stimulated with either CXCL12 (0.1 mg/ml PeproTech, Inc., Rocky Hill N.J.), SLC (CCL21, 0.4 mg/ml, PeproTech, Inc., Rocky Hill, N.J.), Rantes (0.1 mg/ml, R&D systems Minneapolis, Minn.), MIP-1β(0.1 mg/ml, R&D systems Minneapolis, Minn.) or Eotoxin (0.1 mg/ml R&D systems Minneapolis, Minn.) for 15 seconds. Cells were then immediately fixed with paraformaldehyde, permeabilized and their intracellular F-actin was stained with FITC-phalloidin (Sigma-Aldrich, St. Louis, Mo.), and then analyzed by flow cytometry to determine the state of their cytoskeleton, as previously described [Flaishon, L. F., et al., J. Biol. Chem. 276:46701 (2001)].

[2] = TNBS colitis mouse model; assay type: in vivo, mice; details: for Diarrhea (# of mice): 8 mice; for Colitis score: Wallace score 0 to 16
Method: TNBS colitis model and treatment with CCL2—TNBS colitis was induced as previously described [Ohkawara et al. (2002) Gastroenterology, 123:256]. Briefly, mice were anesthetized by i.p. injection (35 μl per mouse) of a mixture containing 85% ketamine and 15% xylazine (20 mg/ml). Next, 100 μl of TNBS [55% volume of 50% ethanol mixed with 45% volume of TNBS solution ([…]; Sigma-Aldrich)] was infused into the colonic lumen (about 3.5 cm of the anal verge) via 1 ml syringe attached to a feeding needle. Treated mice were weighted daily and visually inspected for clinical symptoms, such as rectal bleeding and diarrhea.
TNBS mice were divided into 6 groups. CCL2 groups (10 mice in each group) were injected i.p. daily with different CCL2 concentrations (30 ng, 60 ng or 180 ng) in 200 μl of PBS from day 0 (immediately after TNBS induction) to day 6. Control groups (10 mice in each group) were injected i.p. daily with 200 μl PBS alone. Additionally, 5 mice were injected i.p. daily with dexamethasone; and 1 mouse which was not treated and served as negative control for future histology and weight.
Macroscopic and histological assessment of colitis—An observer blind to the experimental procedure scored colitis for clinical manifestation of disease. The colon was macroscopically examined (×5 magnification) to evaluate the macroscopic lesions according to the Wallace criteria. The Wallace score ranks macroscopic colon lesions on a scale from 0 to 16 based on criteria reflecting inflammation, such as hyperemia, thickening of the bowel and the extent of ulceration. The colon was cut lengthwise and fixed in 4% paraformaldehyde for future histology.

[3] = system: effector (Th1, Th2) T cells; test: Cytoskeleton rearrangement (actin polymerization), effector T cells; assay type: cell-based, mice; details: CCL2 0.1 ng/ml
Method: T cell sorting—Spleen and […] were obtained from mice as previously described [Shachar I. and Flavell R. A., Science 274:106 (1996)]. T cells were enriched using the MACS system (Miltenyi Biotec, Auburn, Calif.) according to the manufacturer's protocol. Spleen cells were incubated with anti-CD45R (B220) magnetic beads (Miltenyi Biotec, Auburn, Calif.) and the CD45 negative cells were collected. CD4+ T cells were enriched using anti-CD4 magnetic beads (Miltenyi Biotec, Auburn, Calif.). […]
as §1, with “N.J.) or” for “N.J.),”, “N.J.),” for “N.J.), Rantes (0.1 mg/ml, R&D systems Minneapolis, Minn.), MIP-1β(0.1 mg/ml, R&D systems Minneapolis, Minn.) or Eotoxin (0.1 mg/ml R&D systems Minneapolis, Minn.)”

[4] = CCL2 30 ng i.p. daily day 0 to day 6
[5] = CCL2 60 ng i.p. daily day 0 to day 6
[6] = CCL2 180 ng i.p. daily day 0 to day 6

**Q.** What does the source list for “CCL2: mammalian (e.g., human) CCL2 protein, GenBank NM_002982 / NP_002973; murine CCL2 used in the asthma model”?
**A.** inhibition of CXCL12-induced actin polymerization ([1]; FIG. 2c): 40-50%; inhibition of CCL21-induced actin polymerization ([1]; FIG. 2d): 40-50%; Colon length (cm) [2, 4]: 6.25 ± 0.65 cm; Diarrhea (# of mice) [2, 4]: 4 # of mice; Colitis score [2, 4]: 10.875 ± 4.29; Colon length (cm) [2, 5]: 7.88 ± 0.35 cm; Diarrhea (# of mice) [2, 5]: 0 # of mice; Colitis score [2, 5]: 2.13 ± 1.89; Colon length (cm) [2, 6]: 7.88 ± 0.58 cm; Diarrhea (# of mice) [2, 6]: 0 # of mice; Colitis score [2, 6]: 2.88 ± 1.89; TNBS colitis disease severity (diarrhea, colon shortening) ([2]; mice, CCL2 i.p. daily day 0 to day 6, Table 2, FIG. 10): significantly inhibited the disease; CCL21 induced cytoskeleton rearrangement of effector cells ([3]; CCL21 0.4 mg/ml 15 seconds): down-regulated; CXCL12 induced cytoskeleton rearrangement of effector cells ([3]; CXCL12 15 seconds): down-regulated
